Reference: patent US20260015315A1, “AMINO LIPID COMPOUND, PREPARATION METHOD THEREFOR, COMPOSITION THEREOF AND APPLICATION THEREOF” (SHENZHEN SHENXIN BIOTECHNOLOGY CO., LTD., priority 2022, published 2026)

The compounds below were run on BALB/c mice (assay: In vivo delivery of lipid nanoparticle encapsulating luciferase mRNA (Fluc mRNA), IVIS imaging). Settings: Fluc mRNA-LNP (amino lipid:DSPC:CHO-HP:PEG2000-DMG 48:10:40.5:1.5), 75 μL tail vein IV, female BALB/c mice, IVIS 6 hours after injection, whole body.
Experimental: The amino lipid compound of the present disclosure, a helper lipid, a structural lipid, and a PEG-lipid were separately dissolved in absolute ethanol to prepare respective solutions at concentrations of 20 mg/mL, 10 mg/mL, 20 mg/mL, and 25 mg/mL, respectively. The above four solutions were pipetted at a molar ratio of the amino lipid compound: DSPC:CHO-HP:PEG2000-DMG of 48:10:40.5:1.5, and mixed well to prepare an alcohol phase.
(2) Encapsulation: The water phase and the alcohol phase were injected into a microfluidic chip at a flow rate of water phase:alcohol phase=12 mL/min: 4 mL/min by using a microfluidic preparation instrument (MPE-L2), and encapsulation was carried out at a flow rate of water phase:alcohol phase=9 mL/min: 3 mL/min to obtain mRNA-encapsulating lipid nanoparticle (mRNA-LNP).
(3) Dialysis: The product of step (2) was loaded in a dialysis bag and placed in a Tris Buffer-8% sucrose solution for replacement to remove ingredients such as residual ethanol, unassembled lipids. Dialysis was conducted for 2 h with magnetic stirring at room temperature and under protection from light (dialysate was replaced every 1 hour).
(4) The product of step (3) was sterilized by passing through a 0.22 μm microporous membrane, and then packaged.
Lipid nanoparticle formulations encapsulating Flue mRNA were prepared, with a concentration of Flue mRNA of 0.2 μg/μL, a mass ratio of Flue mRNA to Lipid of 1:10, a particle size of 80-130 nm, and a encapsulation efficiency of 80% or higher.
• Animal preparation: Female BALB/c mice of 6-8 weeks old were selected and raised in an SPF grade breeding room. Animal testing was conducted in strict accordance with the guidelines of national health institutions and animal ethics requirements.
In vivo Delivery: prior to injection of the test LNP formulations, the LNP formulations were gently and repeatedly inverted to thoroughly mix the formulation samples. A corresponding amount of the formulation samples were aspirated with a 1 ml insulin syringe, and the LNP formulations were injected by tail vein injection (IV), with 3 mice in duplicate per formulation. Each mouse was injected with 75 μL of the luciferase mRNA (Flue mRNA)-encapsulating lipid nanoparticle formulation prepared in Experimental Example 1.
6 hours after injection of LNP formulations, mice were injected with 200 μL D-Luciferin luciferase developing substrate (Catalog No. 122799; Manufacturer: Perkin Elmer). After the substrate was injected, the mice were anesthetized by injection of 200 μl of 2.5% avertin, and the injection time of luciferase developing substrate was recorded.
The fluorescence expression intensity induced by the lipid nanoparticle encapsulating luciferase mRNA (Flue mRNA) with a representative amino lipid compound is shown in Table 4, with the amino lipid compound 118 as a control.

First: CCCCCCC(CCCCCC)OC(=O)CCCCCCCCC(CCCCCCCCC(=O)OC(CCCCCC)CCCCCC)N(CCCN(C)C)C(=O)CCCOCCCCC [compound 130]
Second: CCCCCCOCCCC(=O)N(CCCN(C)C)C(CCCCCCCCC(=O)OC(CCCCCC)CCCCCC)CCCCCCCCC(=O)OC(CCCCCC)CCCCCC [compound 131]
The “Total flux (fluorescence expression intensity)” value of the first is higher: 5.73E+07 for the first, 3.26E+07 for the second.

Compared with CCCCCCCCOCCCC(=O)N(CCCN(C)C)C(CCCCCCCCC(=O)OC(CCCCCC)CCCCCC)CCCCCCCCC(=O)OC(CCCCCC)CCCCCC [compound 133], CCCCCCCOCC(=O)N(CCCCN(C)C)C(CCCCCCCCC(=O)OC(CCCCCC)CCCCCC)CCCCCCCCC(=O)OC(CCCCCC)CCCCCC [compound 169] is lower in “Total flux (fluorescence expression intensity)” value: 3.58E+07 for the first, 1.17E+07 for the second.

First: CCCCCCC(CCCCCC)OC(=O)CCCCCCCCC(CCCCCCCCC(=O)OC(CCCCCC)CCCCCC)N(CCCCN(C)C)C(=O)COCCCC [compound 166]
Second: CCCCCCC(CCCCCC)OC(=O)CCCCCCCCC(CCCCCCCCC(=O)OC(CCCCCC)CCCCCC)N(CCCCN(C)C)C(=O)COCCCCC [compound 167]
The “Total flux (fluorescence expression intensity)” value of the first is lower: 1.25E+07 for the first, 4.02E+07 for the second.

CCCCCCOCC(=O)N(CCCCN(C)C)C(CCCCCCCCC(=O)OC(CCCCCC)CCCCCC)CCCCCCCCC(=O)OC(CCCCCC)CCCCCC [compound 168] was tested, and the “Total flux (fluorescence expression intensity)” value was 2.68E+07.

Same assay, conditions: Fluc mRNA-LNP, 75 μL tail vein IV, female BALB/c mice, IVIS 6 hours after injection, liver

First: CCCCCCC(CCCCCC)OC(=O)CCCCCCCCC(CCCCCCCCC(=O)OC(CCCCCC)CCCCCC)N(CCCCN(C)C)C(=O)COCCCC [compound 166]
Second: CCCCCCC(CCCCCC)OC(=O)CCCCCCCCC(CCCCCCCCC(=O)OC(CCCCCC)CCCCCC)N(CCCCN(C)C)C(=O)COCCCCC [compound 167]
The “Liver (fluorescence expression intensity)” value of the first is higher: 7.74E+06 for the first, 4.42E+06 for the second.

First: CCCCCCOCC(=O)N(CCCCN(C)C)C(CCCCCCCCC(=O)OC(CCCCCC)CCCCCC)CCCCCCCCC(=O)OC(CCCCCC)CCCCCC [compound 168]
Second: CCCCCCCOCC(=O)N(CCCCN(C)C)C(CCCCCCCCC(=O)OC(CCCCCC)CCCCCC)CCCCCCCCC(=O)OC(CCCCCC)CCCCCC [compound 169]
The “Liver (fluorescence expression intensity)” value of the first is higher: 9.12E+06 for the first, 6.59E+06 for the second.

Same assay, conditions: Fluc mRNA-LNP, 75 μL tail vein IV, female BALB/c mice, IVIS 6 hours after injection, spleen

First: CCCCCCC(CCCCCC)OC(=O)CCCCCCCCC(CCCCCCCCC(=O)OC(CCCCCC)CCCCCC)N(CCCN(C)C)C(=O)CCCOCCCCC [compound 130]
Second: CCCCCCOCCCC(=O)N(CCCN(C)C)C(CCCCCCCCC(=O)OC(CCCCCC)CCCCCC)CCCCCCCCC(=O)OC(CCCCCC)CCCCCC [compound 131]
The “Spleen (fluorescence expression intensity)” value of the first is higher: 1.13E+07 for the first, 6.59E+06 for the second.

First: CCCCCCCCOCCCC(=O)N(CCCN(C)C)C(CCCCCCCCC(=O)OC(CCCCCC)CCCCCC)CCCCCCCCC(=O)OC(CCCCCC)CCCCCC [compound 133]
Second: CCCCCCCOCC(=O)N(CCCCN(C)C)C(CCCCCCCCC(=O)OC(CCCCCC)CCCCCC)CCCCCCCCC(=O)OC(CCCCCC)CCCCCC [compound 169]
The “Spleen (fluorescence expression intensity)” value of the first is higher: 1.25E+07 for the first, 5.11E+06 for the second.

First: CCCCCCC(CCCCCC)OC(=O)CCCCCCCCC(CCCCCCCCC(=O)OC(CCCCCC)CCCCCC)N(CCCCN(C)C)C(=O)COCCCC [compound 166]
Second: CCCCCCC(CCCCCC)OC(=O)CCCCCCCCC(CCCCCCCCC(=O)OC(CCCCCC)CCCCCC)N(CCCCN(C)C)C(=O)COCCCCC [compound 167]
The “Spleen (fluorescence expression intensity)” value of the first is higher: 8.07E+06 for the first, 7.64E+06 for the second.

In the case of CCCCCCOCC(=O)N(CCCCN(C)C)C(CCCCCCCCC(=O)OC(CCCCCC)CCCCCC)CCCCCCCCC(=O)OC(CCCCCC)CCCCCC [compound 168], the “Spleen (fluorescence expression intensity)” value is reported as 8.95E+06.

Same assay, conditions: Fluc mRNA-LNP, tail vein IV, BALB/c mice, 6 hours

Compared with CCCCCCC(CCCCCC)OC(=O)CCCCCCCCC(CCCCCCCCC(=O)OC(CCCCCC)CCCCCC)N(CCCN(C)C)C(=O)CCCOCCCCC [compound 130], CCCCCCOCCCC(=O)N(CCCN(C)C)C(CCCCCCCCC(=O)OC(CCCCCC)CCCCCC)CCCCCCCCC(=O)OC(CCCCCC)CCCCCC [compound 131] is higher in “(Spleen/Total Flux) * 100%” value: 19.72% for the first, 20.21% for the second.

Compared with CCCCCCCCOCCCC(=O)N(CCCN(C)C)C(CCCCCCCCC(=O)OC(CCCCCC)CCCCCC)CCCCCCCCC(=O)OC(CCCCCC)CCCCCC [compound 133], CCCCCCCOCC(=O)N(CCCCN(C)C)C(CCCCCCCCC(=O)OC(CCCCCC)CCCCCC)CCCCCCCCC(=O)OC(CCCCCC)CCCCCC [compound 169] is higher in “(Spleen/Total Flux) * 100%” value: 34.92% for the first, 43.68% for the second.

First: CCCCCCC(CCCCCC)OC(=O)CCCCCCCCC(CCCCCCCCC(=O)OC(CCCCCC)CCCCCC)N(CCCCN(C)C)C(=O)COCCCC [compound 166]
Second: CCCCCCC(CCCCCC)OC(=O)CCCCCCCCC(CCCCCCCCC(=O)OC(CCCCCC)CCCCCC)N(CCCCN(C)C)C(=O)COCCCCC [compound 167]
The “(Spleen/Total Flux) * 100%” value of the first is higher: 64.56% for the first, 19.00% for the second.

In the case of CCCCCCOCC(=O)N(CCCCN(C)C)C(CCCCCCCCC(=O)OC(CCCCCC)CCCCCC)CCCCCCCCC(=O)OC(CCCCCC)CCCCCC [compound 168], the “(Spleen/Total Flux) * 100%” value is reported as 33.40%.

Same assay, conditions: Fluc mRNA-LNP, tail vein IV, BALB/c mice, 6 hours; relative to Compound 118

Compared with CCCCCCC(CCCCCC)OC(=O)CCCCCCCCC(CCCCCCCCC(=O)OC(CCCCCC)CCCCCC)N(CCCN(C)C)C(=O)CCCOCCCCC [compound 130], CCCCCCOCCCC(=O)N(CCCN(C)C)C(CCCCCCCCC(=O)OC(CCCCCC)CCCCCC)CCCCCCCCC(=O)OC(CCCCCC)CCCCCC [compound 131] is higher in “Multiple of spleen delivery/total delivery (Spleen/Total Flux) to Compound 118” value (shortened to “Multiple … (Spleen/Total Flux) to Compound 118”): 17.30 for the first, 17.73 for the second.

Going from CCCCCCCCOCCCC(=O)N(CCCN(C)C)C(CCCCCCCCC(=O)OC(CCCCCC)CCCCCC)CCCCCCCCC(=O)OC(CCCCCC)CCCCCC [compound 133] to CCCCCCCOCC(=O)N(CCCCN(C)C)C(CCCCCCCCC(=O)OC(CCCCCC)CCCCCC)CCCCCCCCC(=O)OC(CCCCCC)CCCCCC [compound 169], the “Multiple … (Spleen/Total Flux) to Compound 118” value rises from 30.63 to 38.31.

Going from CCCCCCC(CCCCCC)OC(=O)CCCCCCCCC(CCCCCCCCC(=O)OC(CCCCCC)CCCCCC)N(CCCCN(C)C)C(=O)COCCCC [compound 166] to CCCCCCC(CCCCCC)OC(=O)CCCCCCCCC(CCCCCCCCC(=O)OC(CCCCCC)CCCCCC)N(CCCCN(C)C)C(=O)COCCCCC [compound 167], the “Multiple … (Spleen/Total Flux) to Compound 118” value falls from 56.63 to 16.67.

In the case of CCCCCCOCC(=O)N(CCCCN(C)C)C(CCCCCCCCC(=O)OC(CCCCCC)CCCCCC)CCCCCCCCC(=O)OC(CCCCCC)CCCCCC [compound 168], the “Multiple … (Spleen/Total Flux) to Compound 118” value is reported as 29.29.

Each compound was assayed on immune cell populations in different tissues and organs (assay: Delivery efficiency of eGFP mRNA encapsulating LNP to immune cell populations in different tissues and organs (flow cytometry)). Settings: eGFP mRNA-LNP intravenous, C57BL/6 mice, 6 hours; spleen, axillary lymph nodes, peripheral blood, bone marrow, lungs, liver; FIGS. 1A to 1F.
Type: in vivo
Experimental: C57BL/6 mice (3 mice per group) were intravenously injected with eGFP mRNA encapsulating LNP. After 6 hours, the mice were dissected, and the spleen, axillary lymph nodes, peripheral blood, bone marrow, lungs and liver were collected to prepare single-cell suspensions of various tissues and organs. After blocking with Fe blocking antibodies and surface staining with fluorescent-labeled antibodies, sample analysis was conducted by flow cytometry to analyze the expression levels of eGFP in various immune cell populations to confirm the delivery efficiency of lipid nanoparticles comprising different amino lipid compounds to immune cell populations in different tissues and organs.

In the case of CCCCCCC(CCCCCC)OC(=O)CCCCCCCCC(CCCCCCCCC(=O)OC(CCCCCC)CCCCCC)N(CCCN(C)C)C(=O)CCCOCCCCC [compound 130], the “Delivery preference to immune cells (eGFP expression in immune cell populations)” value (shortened to “Delivery preference to immune cells”) is reported as “clear delivery preference to immune cells in various tissues and organs”.
CCCCCCOCCCC(=O)N(CCCN(C)C)C(CCCCCCCCC(=O)OC(CCCCCC)CCCCCC)CCCCCCCCC(=O)OC(CCCCCC)CCCCCC [compound 131] was tested, and the “Delivery preference to immune cells” value was “clear delivery preference to immune cells in various tissues and organs”.
CCCCCCCCOCCCC(=O)N(CCCN(C)C)C(CCCCCCCCC(=O)OC(CCCCCC)CCCCCC)CCCCCCCCC(=O)OC(CCCCCC)CCCCCC [compound 133] was tested, and the “Delivery preference to immune cells” value was “clear delivery preference to immune cells in various tissues and organs”.
